Results on two compounds are retold here after paper PMC10334471, “Tumor-targeted dual-action NSAID-platinum(IV) anticancer prodrugs” (Inorganic Chemistry Frontiers, 2023).

One data set has as its system RKO. Description: MTT assay, 72 h, RKO. The class given is cell-based. To be noted: 72 h treatment, mean ± SD. On the procedure:
(§1) All cell cultures were grown at 37 °C in a humidified atmosphere containing 5% CO2. HCT116, RKO and HT-29 cells were cultured in McCoy's 5A Modified Media (Sigma-Aldrich, St. Louis, MO, USA) supplemented with 10% heat-inactivated fetal calf serum (FCS, PAA, Linz, Austria) and 2 mM glutamine (Sigma-Aldrich, St. Louis, MO, USA). The murine (Balb/c) colon cancer cell model CT26 (purchased from American Type Culture Collection, Manassas, VA, USA) were cultured in DMEM/F12 supplemented with 10% fetal calf serum (FCS). SW480 and Caco-2 cells were cultured in MEME media supplemented with 10% and 20% FCS, respectively. All cell culture media and reagents were purchased from Sigma-Aldrich Austria. […] The cells were regularly checked for Mycoplasma contamination.
(§2) Depending on their proliferation rate, cells were seeded at a density of 3500–5000 cells per well in 96-well microtiter plates and allowed to adhere overnight. […] Cell viability was determined using the 3-(4,5-dimethylthiazol-2-yl)-2,5-diphenyltetrazolium bromide (MTT) assay (EZ4U, Biomedia, Vienna, Austria) according to the manufacturer's recommendation. Depending on the metabolic capacity, the cell lines were incubated between one and three hours at 37 °C and subsequently absorbance was measured at 450 nm (620 nm as a reference) with a Tecan Reader infinite® M200Pro (Tecan Group Ltd, Switzerland). Data were analyzed using Graph Pad prism (version 8.0.1) by using the point-to-point function. […] Following, dose–response curves were calculated using the point-to-point function.
For orientation: Tetrazolium assays rely on reduction of a dye to a coloured formazan, in cell work by metabolically active cells.

The subject of the next data set is SW480. Briefly: MTT assay, 72 h, SW480. To be noted: 72 h treatment, mean ± SD. The class given is cell-based. Here is the method: as §1, §2
Another data set has as its system HT-29. Description: MTT assay, 72 h, HT-29. The class given is cell-based. As to conditions: for IC50: HT-29, MTT, 72 h treatment, mean ± SD. On the procedure: as §1, §2
A further data set has as its system HCT116. Description: MTT assay, 72 h, HCT116. To be noted: 72 h treatment, mean ± SD. The class given is cell-based. Here is the method:
as §1, §2

The test system of another data set is HCT116/OxR. Description: MTT assay, 72 h, HCT116/OxR (oxaliplatin-resistant). As to conditions: 72 h treatment, mean ± SD. The class given is cell-based. Here is the method:
as §1, §2

The test system of another data set is CT26 (murine). Briefly: MTT assay, 72 h, CT26. The class given is cell-based. As to conditions: 72 h treatment, mean ± SD. On the procedure:
as §1, §2

For data set [1], the system named is CT26 allografts. The class given is in vivo. As to conditions: oxaliplatin 9 mg kg^−1 i.v. On the procedure:
(§3) All experiments were executed according to the regulation of the Ethics Committee for the Care and Use of Laboratory Animals at the Medical University Vienna. 8–12 weeks old BALB/c were kept in a pathogen-free environment with a 12 h light dark-cycle with ad libitum access to food and water. Every procedure was performed in a laminar airflow under sterile condition. Tumor growth and possible side effects of drug treatment were evaluated by daily recording the tumor size by caliper measurement according to the formula length × width^2/2 and parameters of the animal's overall health conditions.
(§4) CT26 cells (5 × 10^5 cells in 50 μl serum-free medium) were injected s.c. into the right flank of female BALB/c mice. […] Asa was treated orally using 50 mg kg^−1 in 5% DMSO/0.9% NaCl. Every day, the animals were monitored for the overall health conditions. Additionally, tumor size was measured. In case of a decreased body weight of ∼20% or ulcerated tumors, animals were sacrificed by cervical dislocation and tumors as well as organs were collected.

Data set [2] concerns CT26 allografts. Also on record: method as in not given. To be noted: reported MTD; ref not given; cited from earlier work.
Data set [3] in a line: Stability in aqueous buffer pH 7.4 (HPLC). The class given is physicochemical. To be noted: 1 mM, 250 mM phosphate buffer pH 7.4, 20 °C, 25 h, HPLC. On the procedure: (§5) Phosphate buffer (250 mM, pH 7.4) containing 1 mM platinum compound was incubated at 20 °C, with and without the addition of 10 eq. L-ascorbic acid. […] A gradient of 5–95% over 5 minutes was used. To evaluate the current state of the reaction, the peak area of the parental complex was used.

Data set [4] is described as follows: Reduction kinetics with 10 eq. ascorbic acid (UHPLC). As to conditions: 1 mM, 250 mM phosphate buffer pH 7.4, 20 °C, 10 eq. ascorbic acid. The class given is physicochemical. Here is the method:
as §5

A short description of data set [5]: Released salicylic acid in serum of mice after single i.v. administration (UHPLC-MS). As to conditions: for Free salicylic acid in serum, share of administered dose: tumor-free Balb/c mice. On the procedure: After 10 min, 1 h and 24 h blood was collected via the facial vein. Serum was isolated by centrifugation at 900 g for 10 min for two times and stored at −80 °C. Platinum content was detected by ICP-MS measurements, using an Agilent 7800 (Agilent Technologies, Tokyo, Japan) equipped with an Agilent SPS 4 autosampler (Agilent Technologies, Tokyo, Japan) and a MicroMist nebulizer. The Agilent MassHunter software package (Workstation Software, Version C.01.04, 2018) was used for data evaluation. The ICP-MS operation parameters are given in Table S1. ^† Salicylic acid was extracted and detected as described above.

In another data set the test system is Caco-2. Briefly: MTT assay, 72 h, Caco-2. The class given is cell-based. As to conditions: Caco-2, MTT, 72 h treatment, mean ± SD. On the procedure:
as §1, §2

Data set [6] relates to colorectal cancer cell line panel. Briefly: MTT assays, 72 h, whole panel comparison. The class given is cell-based. As to conditions: in most cell lines of the panel. On the procedure: All cell cultures were grown at 37 °C in a humidified atmosphere containing 5% CO2. HCT116, RKO and HT-29 cells were cultured in McCoy's 5A Modified Media (Sigma-Aldrich, St. Louis, MO, USA) supplemented with 10% heat-inactivated fetal calf serum (FCS, PAA, Linz, Austria) and 2 mM glutamine (Sigma-Aldrich, St. Louis, MO, USA). The murine (Balb/c) colon cancer cell model CT26 (purchased from American Type Culture Collection, Manassas, VA, USA) were cultured in DMEM/F12 supplemented with 10% fetal calf serum (FCS). SW480 and Caco-2 cells were cultured in MEME media supplemented with 10% and 20% FCS, respectively. All cell culture media and reagents were purchased from Sigma-Aldrich Austria. […]
Depending on their proliferation rate, cells were seeded at a density of 3500–5000 cells per well in 96-well microtiter plates and allowed to adhere overnight. […] Cell viability was determined using the 3-(4,5-dimethylthiazol-2-yl)-2,5-diphenyltetrazolium bromide (MTT) assay (EZ4U, Biomedia, Vienna, Austria) according to the manufacturer's recommendation. Depending on the metabolic capacity, the cell lines were incubated between one and three hours at 37 °C and subsequently absorbance was measured at 450 nm (620 nm as a reference) with a Tecan Reader infinite® M200Pro (Tecan Group Ltd, Switzerland). Data were analyzed using Graph Pad prism (version 8.0.1) by using the point-to-point function. […]

Data set [7] is described as follows: Preliminary oral tolerability experiments in tumor-free mice. The class given is in vivo. As to conditions: 52.8 mg kg^−1 p.o. An excerpt: It is well known that COX-2 is involved in the paracrine signaling between immune cells, resulting in a pro-tumorigenic tumor microenvironment.[10,33] Consequently, we got interested in the impact of the Asa ligand on the anticancer activity of the drugs in vivo. Therefore, we chose immune-competent murine colon cancer CT26 allografts as test system, which were characterized by high COX-2 expression (Fig. S4 ^†). […] Thus, the experiment was stopped on day 19 due to a distinct drop in body weight in these animals. As Asa is clinically applied p.o., we tested the efficacy of OxAsaOAc and asplatin in an oral application setting. […] For the therapy experiment, the animals were treated with OxAsaOAc and asplatin for five subsequent days over two weeks. […] Consequently, we concluded that the drug doses reaching the tumor in these therapy settings were insufficient, which prompted us to aim for carrier systems with enhanced tumor-targeting properties.

Data set [8] concerns CT26 allografts. Description: Oral anticancer activity in CT26 allografts. As to conditions: OxAsaOAc 52.8 mg kg^−1 p.o., five subsequent days over two weeks. The class given is in vivo, Balb/c mice. Here is the method: It is well known that COX-2 is involved in the paracrine signaling between immune cells, resulting in a pro-tumorigenic tumor microenvironment.[10,33] Consequently, we got interested in the impact of the Asa ligand on the anticancer activity of the drugs in vivo. […] As Asa is clinically applied p.o., we tested the efficacy of OxAsaOAc and asplatin in an oral application setting. […] For the therapy experiment, the animals were treated with OxAsaOAc and asplatin for five subsequent days over two weeks.
as §3

In a further data set the target is T1, albumin (Bos taurus, UniProt P02769).
T1 construct: Fetal calf serum was purchased from Sigma-Aldrich and buffered with 150 mM phosphate pH 7.4; tissue Sigma-Aldrich; host or cells: fetal calf serum
Briefly: Albumin binding in fetal calf serum by SEC-ICP-MS. The class given is in vitro ADME. To be noted: 100 μM in FCS (150 mM phosphate buffer, pH 7.4), 37 °C, up to 6 h. On the procedure: Fetal calf serum was purchased from Sigma-Aldrich and buffered with 150 mM phosphate pH 7.4 in order to guarantee a stable pH. The platinum(IV) complexes (5 mM) were dissolved in 150 mM phosphate buffer (pH 7.4) and diluted 1 : 50 in the buffered serum to obtain a final concentration of 100 μM. The samples were then incubated in the autosampler at 37 °C and analyzed every 1 h for 6 h. Between each sample a pure water blank was measured. For SEC-ICP-MS measurements an Agilent 1260 Infinity system coupled to an Agilent 7800 ICP-MS equipped with a dynamic reaction cell was used. Oxygen (purity 5.5, Messer Austria GmbH, Gumpoldskirchen, Austria) was used as reaction gas.
Background: SEC sorts molecules by how far they enter the pores of the column.

Data set [9] relates to CT26 allografts. Briefly: Anticancer activity i.v. in CT26-bearing mice. The class given is in vivo, Balb/c mice. As to conditions: i.v., 4-times over 2 weeks, doses equimolar to 9 mg kg^−1 oxaliplatin. Here is the method: as §3, §4

T1 sequence (P02769 25-607): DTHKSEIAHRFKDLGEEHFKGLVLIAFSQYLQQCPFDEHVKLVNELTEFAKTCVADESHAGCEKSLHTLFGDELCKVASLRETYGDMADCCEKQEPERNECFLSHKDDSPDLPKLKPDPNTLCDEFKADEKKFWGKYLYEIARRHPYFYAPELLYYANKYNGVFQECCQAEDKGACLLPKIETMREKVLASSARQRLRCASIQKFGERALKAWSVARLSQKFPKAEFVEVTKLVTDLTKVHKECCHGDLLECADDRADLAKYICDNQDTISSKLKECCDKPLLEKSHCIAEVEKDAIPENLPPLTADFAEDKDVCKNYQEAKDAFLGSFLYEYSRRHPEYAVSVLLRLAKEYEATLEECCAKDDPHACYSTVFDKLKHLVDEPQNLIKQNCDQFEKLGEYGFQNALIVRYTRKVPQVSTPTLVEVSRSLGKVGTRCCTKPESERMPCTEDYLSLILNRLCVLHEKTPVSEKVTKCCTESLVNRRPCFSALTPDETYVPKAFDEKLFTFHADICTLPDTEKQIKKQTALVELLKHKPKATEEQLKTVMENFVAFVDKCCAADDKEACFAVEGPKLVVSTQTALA

What is called IC50 is the concentration that gives 50% inhibition. A low value points to greater potency. As to `O=C1[O][Pt]2([NH][C@@H]3CCCC[C@H]3[NH]2)[O]C1=O` [Oxaliplatin, oxaliplatin], the IC50 in the data set with RKO was determined as 0.4 ± 0.04 µM; with SW480, 1 ± 0.2 µM; in the data set on HT-29, 5.3 ± 1.2 µM; in the data set on HCT116 it was 0.8 ± 0.1 µM; in the data set on HCT116/OxR it was 27.8 ± 5.2 µM; in the data set with CT26 (murine), 1.8 ± 0.2 µM. For the same compound, the “Response of tumor model (tumor growth)” value in the data set with CT26 allografts [1] was “responsiveness”. Moreover, in the data set with CT26 allografts [2], the MTD is 9 mg/kg.
For `CC(=O)Oc1ccccc1C(=O)[O][Pt-2]12([O]C(C)=O)([NH2+][C@@H]3CCCC[C@H]3[NH2+]1)[O]C(=O)C(=O)[O]2` [OxAsaOAc, (OC-6-44)-acetato(2-acetoxybenzoato)[(1R,2R)-1,2-cyclohexanediamino]oxalatoplatinum(IV)], in data set [3], the “Stability in aqueous solution” value was “high stability”. Further, the “Intact complex after 6 h” value in [4] (6 h) is reported as 92%. Moreover, in data set [4] (24 h), the “Intact complex after 24 h” value was found to be 53%. Moreover, the “Free salicylic acid in serum, share of administered dose” value in [5] (10 min after single i.v. dose equimolar to 9 mg kg^−1 oxaliplatin) and in data set [5] (1 h after single i.v. dose equimolar to 9 mg kg^−1 oxaliplatin) was less than 5 mol% throughout. Further, in data set [5] (24 h after single i.v. dose equimolar to 9 mg kg^−1 oxaliplatin, below LOD), the “Salicylic acid level in serum” value is less than 3 µM. For the same compound, the IC50 was 17.9 ± 2.1 µM in the data set on Caco-2; 4.3 ± 0.4 µM in the data set with RKO; 11.2 ± 1.3 µM with SW480; 32.7 ± 5.5 µM with HT-29; 9.9 ± 1.5 µM with HCT116; 42.8 ± 4.3 µM with HCT116/OxR. In addition, half-maximal inhibition with CT26 (murine) (IC50) was put at 12.8 ± 0.8 µM. For the same compound, in the data set on HT-29 (HT29 cells), the “Fold higher activity than Ox(OAc)2” value came to 4 fold. For the same compound, the “Fold more active than Ox(OAc)2” value in data set [6] is given as “about 2 fold”. The Tolerability result in data set [7] is on record as “well tolerable”. Moreover, the “Impact on tumor growth” value with CT26 allografts [8] was “none of the drugs had any impact on tumor growth”. Also, on albumin, the “Binding to albumin (or any other protein)” value is less than 5%. Besides, in the data set with CT26 allografts [9], the “Tolerability (body weight)” value is listed as “well tolerated”. The “Anticancer activity (tumor growth, overall survival)” value in the data set with CT26 allografts [9] (CT26) was “significant impact on both tumor growth as well as overall survival”.
